Results published in US6734182B2, “Aryl sulfonamides and sulfamide derivatives and uses thereof” (Synaptic Pharmaceutical Corporation, priority 1995, dated 2004).

Legend:
human 5HT2 receptor = target: T1, human 5HT2 receptor (Homo sapiens, UniProt P28223); test: Binding to human 5HT2 receptor ([3H]ketanserin); settings: cloned human receptor
T1 construct: expressed in transfected cells; host or cells: COS-7 cells (DEAE-dextran); the same paragraph also names the deposited line L-NGC-5HT2 (ATCC CRL 10287)
T1 sequence (P28223 whole entry): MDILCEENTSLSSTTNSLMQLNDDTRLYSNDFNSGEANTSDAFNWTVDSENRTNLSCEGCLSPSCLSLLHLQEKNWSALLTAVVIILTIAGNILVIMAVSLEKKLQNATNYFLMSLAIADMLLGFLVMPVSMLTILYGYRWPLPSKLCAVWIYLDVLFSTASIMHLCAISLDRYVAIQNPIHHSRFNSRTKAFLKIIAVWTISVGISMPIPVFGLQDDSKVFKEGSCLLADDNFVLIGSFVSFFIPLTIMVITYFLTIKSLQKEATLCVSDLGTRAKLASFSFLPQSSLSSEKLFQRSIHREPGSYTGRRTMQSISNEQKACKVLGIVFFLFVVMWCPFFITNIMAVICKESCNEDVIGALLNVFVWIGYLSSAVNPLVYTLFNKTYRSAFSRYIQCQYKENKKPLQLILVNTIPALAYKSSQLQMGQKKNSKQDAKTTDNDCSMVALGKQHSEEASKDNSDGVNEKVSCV
Method: Human 5HT2 Receptor: The coding sequence of the human 5HT2 receptor was obtained from a human brain cortex cDNA library, and cloned into the cloning site of pCEXV-3 eukaryotic expression vector. […] The pellet was suspended in 50 mM Tris-HCl buffer (pH 7.7 at room temperature) containing 10 mM MgSO4, 0.5mM EDTA, and 0.1% ascorbate. […] Nonspecific binding was defined by the addition of 10 μM mianserin.

human 5HT7 receptor = target: T2, human 5HT7 receptor (Homo sapiens, UniProt P34969); test: Binding to human 5HT7 receptor; settings: cloned human receptor
T2 construct: expressed in transfected cells
T2 sequence (P34969 whole entry): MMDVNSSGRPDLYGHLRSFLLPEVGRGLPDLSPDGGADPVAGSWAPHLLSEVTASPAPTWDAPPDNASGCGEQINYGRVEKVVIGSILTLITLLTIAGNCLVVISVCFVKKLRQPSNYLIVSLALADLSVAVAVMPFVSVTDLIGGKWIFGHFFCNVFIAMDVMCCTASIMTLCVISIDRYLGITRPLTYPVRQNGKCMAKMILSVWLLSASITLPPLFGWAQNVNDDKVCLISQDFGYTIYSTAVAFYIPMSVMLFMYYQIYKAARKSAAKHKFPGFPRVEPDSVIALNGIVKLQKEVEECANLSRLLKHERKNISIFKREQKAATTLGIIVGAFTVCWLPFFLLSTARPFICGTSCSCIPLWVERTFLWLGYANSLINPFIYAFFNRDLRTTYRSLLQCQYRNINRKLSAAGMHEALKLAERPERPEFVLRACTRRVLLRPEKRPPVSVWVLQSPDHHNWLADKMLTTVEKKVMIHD
Method: Human 5-ET7 Receptor: A LM(tk−) clonal cell line stably transfected with the gene encoding the 5HT7 receptor subtype was prepared as described above.

human 5HT1Dα receptor = target: T3, human 5HT1Dα receptor (Homo sapiens, UniProt P28221); test: Binding to human 5HT1Dα receptor ([3H]serotonin); settings: cloned human receptor
T3 construct: expressed in transfected cells
T3 sequence (P28221 whole entry): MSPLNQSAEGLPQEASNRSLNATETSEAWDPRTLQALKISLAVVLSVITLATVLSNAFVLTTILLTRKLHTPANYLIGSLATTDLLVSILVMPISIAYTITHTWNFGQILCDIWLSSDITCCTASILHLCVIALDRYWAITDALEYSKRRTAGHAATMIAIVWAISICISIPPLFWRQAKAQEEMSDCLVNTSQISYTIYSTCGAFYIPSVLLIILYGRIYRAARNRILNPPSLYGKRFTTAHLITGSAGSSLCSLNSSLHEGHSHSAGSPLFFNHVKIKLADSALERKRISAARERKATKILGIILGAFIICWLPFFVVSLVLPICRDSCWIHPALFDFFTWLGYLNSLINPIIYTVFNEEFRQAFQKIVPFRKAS
Method: 5HT1Dα, 5HT1Dβ, 5HT1E, 5HT1F Receptors: LM(tk−) clonal cell lines stably transfected with the genes encoding each of these 5HT receptor subtypes were prepared as described above. […] Membrane preparations comprising these receptors were prepared as described below, and suspended in 50 mM Tris-HCl buffer (pH 7.4 at 37° C.) containing 10 mM MgCl2, 0.2 mM EDTA, 10 μM pargyline, and 0.1% ascorbate. The binding of compounds was determined in competition binding assays by incubation for 30 minutes at 37° C. in the presence of 5 nM [^3H) serotonin. Nonspecific binding was determined in the presence of 10 μM serotonin.

human Y4 receptor = target: T4, human Y4 receptor (Homo sapiens, UniProt P50391); test: Radioligand binding to cloned human Y4 receptor (125I-PYY); settings: cloned human Y4, stably transfected cells, read-out: Binding Affinity (K1 (nM) vs. 125I-PYY) Human Receptor Y4
T4 construct: expressed in transfected cells
T4 sequence (P50391 whole entry): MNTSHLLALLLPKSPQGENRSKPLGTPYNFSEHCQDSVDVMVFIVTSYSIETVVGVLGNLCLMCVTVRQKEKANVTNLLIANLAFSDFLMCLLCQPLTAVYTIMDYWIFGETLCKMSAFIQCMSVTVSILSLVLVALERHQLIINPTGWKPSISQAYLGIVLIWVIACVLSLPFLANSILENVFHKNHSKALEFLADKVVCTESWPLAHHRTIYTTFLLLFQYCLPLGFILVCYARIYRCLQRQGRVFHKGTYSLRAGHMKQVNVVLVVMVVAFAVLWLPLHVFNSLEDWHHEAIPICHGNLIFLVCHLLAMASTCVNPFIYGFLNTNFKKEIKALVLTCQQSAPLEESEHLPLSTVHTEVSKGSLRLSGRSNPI
Method: (§1) Human Y1, human Y2, and rat Y5 receptors were co-transfected with a G-418 resistant gene into the human embryonic kidney 293 cell line by a calcium phosphate transfection method (Cullen, 1987). Stably transfected cells were selected with G-418. Human Y4 and human Y5 receptors were similarly transfected into mouse fibroblast LM(tk−) cells and NIH-3T3 cells.
(§2) Binding of the compounds of the present invention to the human Y1, Y2, Y4 and Y5 receptors was evaluated using stably transfected 293 or LM(tk−) cells as described above. Stably transfected cell lines which may be used for binding assays include, for example, for the human Y1 receptor, 293-hY1-5 (deposited Jun. 4, 1996, under ATCC Accession No. CRL-12121), for the human Y2 receptor, 293-hY2-10 (deposited Jan. 27, 1994, under ATCC Accession No. CRL-11537), for the human Y4 receptor, L-hY4-3 (deposited Jan. 11, 1995, under ATCC Accession No. CRL-11779), and for the human Y5 receptor, L-hY5-7 (deposited Nov. 15, 1995, under ATCC Accession No. CRL-11995).
(§3) Membranes were harvested from COS-7 cells 48 hours after transient transfection. Adherent cells were washed twice in ice-cold phosphate buffered saline (138 mM NaCl, 8.1 mM Na2HPO4, 2.5 mM KCl, […], 0.9 mM CaCl2, 0.5 mM MgCl2, pH 7.4) and lysed by sonication in ice-cold sonication buffer (20 mM Tris-HCl, 5 mM EDTA, pH 7.7). Large particles and debris were cleared by low speed centrifugation (200 x g, 5 min, 4° C.). Membranes were collected from the supernatant fraction by centrifugation (32,000 x g, 18 min, […] ), washed with ice-cold hypotonic buffer, and collected again by centrifugation (32,000 x g, 18 min, 4° C.). […] Protein concentration was measured by the Bradford method (Bradford, 1976) using Bio-Rad Reagent, with bovine serum albumin as a standard. Membranes were held on ice for up to one hour and used fresh, or flash-frozen and stored in liquid nitrogen.
(§4) Membranes were prepared similarly from 293, LM(tk−), and NIH-3T3 cells. To prepare membranes from baculovirus infected cells, 2×10^7 Sf21 cells were grown in 150 mm tissue culture dishes and infected with a high-titer stock of hY5BB3. Cells were incubated for 2-4 days at 27° C., no CO2 be fore harvesting and membrane preparation as described above.

human Y1 receptor = target: T5, human Y1 receptor (Homo sapiens, UniProt P25929); test: Radioligand binding to cloned human Y1 receptor (125I-PYY); settings: cloned human Y1, stably transfected cells, read-out: Binding Affinity (K1 (nM) vs. 125I-PYY) Human Receptor Y1
T5 construct: expressed in transfected cells
T5 sequence (P25929 1-384): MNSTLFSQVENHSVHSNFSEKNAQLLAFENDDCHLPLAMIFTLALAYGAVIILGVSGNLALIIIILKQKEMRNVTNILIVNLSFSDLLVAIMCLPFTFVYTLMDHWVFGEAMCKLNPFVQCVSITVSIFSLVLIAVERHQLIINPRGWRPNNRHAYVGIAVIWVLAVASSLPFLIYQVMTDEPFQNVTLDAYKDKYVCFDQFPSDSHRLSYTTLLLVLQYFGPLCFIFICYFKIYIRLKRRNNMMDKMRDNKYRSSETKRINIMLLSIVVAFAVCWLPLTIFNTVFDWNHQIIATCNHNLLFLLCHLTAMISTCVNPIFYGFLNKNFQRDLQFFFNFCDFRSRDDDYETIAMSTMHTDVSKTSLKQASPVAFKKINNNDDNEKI
Method: Membranes were harvested from COS-7 cells 48 hours after transient transfection. […] Large particles and debris were cleared by low speed centrifugation (200 x g, 5 min, 4° C.). […] Membranes were held on ice for up to one hour and used fresh, or flash-frozen and stored in liquid nitrogen.
Incubations were terminated by filtration over Whatman GF/C filters (pre-coated with 1% polyethyleneimine and air-dried before use), followed by washing with 5 mL of ice-cold binding buffer.

human Y2 receptor = target: T6, human Y2 receptor (Homo sapiens, UniProt P49146); test: Radioligand binding to cloned human Y2 receptor (125I-PYY); settings: cloned human Y2, stably transfected cells, read-out: Binding Affinity (K1 (nM) vs. 125I-PYY) Human Receptor Y2
T6 construct: expressed in transfected cells
T6 sequence (P49146 1-381): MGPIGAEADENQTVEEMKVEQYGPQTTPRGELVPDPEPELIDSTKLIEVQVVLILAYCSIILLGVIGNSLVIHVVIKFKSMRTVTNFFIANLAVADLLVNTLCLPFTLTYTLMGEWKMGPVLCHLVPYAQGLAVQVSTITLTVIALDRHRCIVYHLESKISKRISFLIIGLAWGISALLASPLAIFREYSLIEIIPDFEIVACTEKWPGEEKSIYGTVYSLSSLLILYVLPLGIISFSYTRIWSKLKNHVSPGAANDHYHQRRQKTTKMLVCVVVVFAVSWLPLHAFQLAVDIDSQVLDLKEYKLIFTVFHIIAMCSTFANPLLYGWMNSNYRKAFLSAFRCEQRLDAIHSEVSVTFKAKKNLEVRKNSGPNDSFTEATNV
Method: as §1, §2, §3, §4

human α2A receptor = target: T7, human α2A receptor (Homo sapiens, UniProt P08913); test: Binding to cloned human α2A adrenergic receptor ([3H]rauwolscine)
T7 construct: expressed in transfected cells
T7 sequence (P08913 whole entry): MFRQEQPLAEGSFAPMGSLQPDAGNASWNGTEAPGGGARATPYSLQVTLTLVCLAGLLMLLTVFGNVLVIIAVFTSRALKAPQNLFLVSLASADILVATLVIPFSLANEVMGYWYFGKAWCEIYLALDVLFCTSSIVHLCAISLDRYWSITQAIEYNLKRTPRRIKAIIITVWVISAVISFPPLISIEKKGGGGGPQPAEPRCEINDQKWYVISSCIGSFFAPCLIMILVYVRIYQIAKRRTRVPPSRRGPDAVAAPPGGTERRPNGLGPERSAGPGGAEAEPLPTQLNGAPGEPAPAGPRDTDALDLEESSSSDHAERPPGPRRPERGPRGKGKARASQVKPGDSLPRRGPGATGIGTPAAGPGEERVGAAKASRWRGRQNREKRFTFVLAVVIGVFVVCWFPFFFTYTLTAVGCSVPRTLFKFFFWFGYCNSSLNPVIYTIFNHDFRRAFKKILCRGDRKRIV
Method: α2 Human Adrenergic Receptors: To determine the binding of compounds to human α2 receptors, LM(tk−) cell lines stably transfected with the genes encoding the α2A, α2B, and α2C receptors were used. […] Cell lysates were prepared as described below (see Radioligand Dinding to Membrane Suspensions), and suspended in 25 mM glycylglycine buffer (pH 7.6 at room temperature). Equilibrium competition binding assay were performed using [^3H]rauwolscine (0.5 nM), and nonspecific binding was determined by incubation with 10 μM phentolamine.

[1] = tested on: food intake in food-deprived rats; test: Food intake in food-deprived rats (24 h food deprivation); assay type: in vivo, rat; design: concentration or dose not given beside the values; settings: rats after 24 h food deprivation; two hours after administration of test compound

SMILES	Receptor (pKi) 5HT2 (human 5HT2 receptor)	Receptor (pKi) 5HT7 (human 5HT7 receptor)	Receptor (pKi) 5HT1Dα (human 5HT1Dα receptor)	Ki (human Y4 receptor)	Ki (human Y1 receptor)	Ki (human Y2 receptor)	Receptor (pKi) α2a (human α2A receptor)	Two-hour food intake, percentage of intake compared to control rats, Mean (%) [1]
Cl.O=S(=O)(NCC1CCC(CNCC2CCc3ccccc3C2)CC1)c1cccc2ccccc12 (stereo not shown) [Example 32]	6.55	6.42	6.04	11700 nM	3550 nM	955 nM	6.74	36%
Cl.O=[N+]([O-])c1ccccc1S(=O)(=O)NCC1CCC(CNCC2CCc3ccccc3C2)CC1 (stereo not shown) [Example 36]	5.93	6.37	5.94	20400 nM	16000 nM	7760 nM	7.31	35%
